# “Also recorded” adds a separate entry of the source.
# Key:
# T cells = assay: Th17 differentiation of T cells with antibodies to CD3 and CD28, TGF-beta and IL-21; IL-17 by real time PCR; assay type: cell-based; settings: 100 nM, compared with FICZ, FIG. 9
# Description: FIG. 9 is a bar graph T cells differentiation into Th17 cells by in vitro activation with antibodies to CD3 and CD28 in the presence of TGF-beta and IL-21, in the presence of or not of showing beta-naphthoflavone (bNF) or FICZ (100 nM). IL-17 production was measured by real time PCR.
# Briefly, T cells were differentiated into Th17 cells by in vitro activation with antibodies to CD3 and CD28 in the presence of TGF-beta and IL-21 as described (Nature 2008; 454(7202):350-2), in the presence or not of bNF or FICZ (100 nM). IL-17 production was measured by real time PCR.
# naive T cells = assay: In vitro TH17 differentiation of naive T cells with TGFβ1 and IL-6 (with or without IL-23); assay type: cell-based
# Description: (§1) FIG. 1A is a set of three FACS plots showing conversion of CD4^+Foxp3:GFP^− T cells into CD4^+Foxp3:GFP^+ Treg by stimulation with antibodies to CD3 and CD28 in the presence of TGFb1 with or without FICZ; FIG. 1b; FIG. 1B presents the data in bar graph format. FIG. 1C is a bar graph showing AHR expression in naïve T cells differentiated in vitro into TH1, TH2 or TH17 cells for four days (mean+s.d. of triplicates normalized to actin expression). FIG. 1D is a bar graph showing AHR expression in naïve T cells differentiated in vitro into TH17 for four days with the indicated cytokines (mean+s.d. of triplicates normalized to actin expression). FIG. 1E is a bar graph showing RORγt expression in naïve T cells differentiated into TH17 for four days with TGFβ1 and IL-6 alone or in combination with FICZ (mean+s.d. of triplicates normalized to actin expression). FIG. 1F is a set of nine FACS plots of frequency of IL-17^+ T cells differentiated with TGFβ1 and IL-6 alone or in combination with IL-23 and/or FICZ for four days. FIG. 1G is a bar graph showing IL-17 and FIG. 1H is a pair of bar graphs showing IL-21 (left) and IL-22 (right) levels in supernatants of cultures prepared as in 1E, as measured by ELISA after 4 days of differentiation into.
# Next, the effect of AHR activation by FICZ on in vitro TH17 differentiation was investigated using the TH17 transcription factor RORyt as a marker of TH17 differentiation.
# CD4+Foxp3:GFP- T cells = assay: Conversion of CD4+Foxp3:GFP- T cells into Treg with antibodies to CD3 and CD28 and TGFb1; assay type: cell-based; settings: in vitro, anti-CD3/CD28, TGFβ1, FIGS. 1A, 1B
# Description: as §1, with “into. […]” for “into.”
# EAE mice [1] = assay: EAE in C57BL/6 mice treated weekly with AHR-ligand nanoparticles; assay type: in vivo; settings: weekly from day 0, 45 femtomoles of nanoparticles, FIG. 7
# Description: FIG. 7 is a line graph showing modulation of EAE by AHR-ligand nanoparticles. EAE was induced in B6 mice (n=5), the mice were treated with nanoparticles weekly starting from day 0, and the animals were followed for signs of EAE.
# To investigate the in vivo functionality of AHR-ligand loaded nanoparticles EAE was induced on naïve C57BL/6 mice and treated them, starting at day 0, weekly with 45 femtomoles of nanoparticles.
# Hep3b cells = assay: In vivo model of hepatocellular carcinoma (Hep3b cells in athymic nude mouse reconstituted with splenocytes)
# Description: FIGS. 3A and 3B are bar graphs illustrating AFP levels in HCC tumor models treated with FICZ (3A) or FICZ plus HBSAg (3B).
# In this example the effects of FICZ administration on Hepatocellular Carcinoma were evaluated in a mouse model of cancer.
# The present study used athymic nude mouse (N=7), a type of laboratory mouse that is hairless, lacks a normal thymus gland, and has a defective immune system because of a genetic mutation.
# 100 ug of frozen FICZ (BIOMOL International, Plymouth Meeting, Pa.) was dissolved in 5 ml of CREMOPHOR™ (polyethoxylated castor oil):ethanol in phosphate buffered saline (PBS), to produce a working solution of 20 ug/ml. 250 ul (5 ug total) of HBs antigen was injected in Treatment Group C. The experiments were carried out as follows:
# Tumor sizes were measured in three dimensions using Vernier calipers and tumor volume was computed assuming a spherical geometry with radius equal to one-half the average tumor dimension: TV (mm^3)=d^2×D/2. Tumors were measured two times a week and mice were monitored routinely to evaluate the effects of treatment.
# In addition, serum AFP levels were monitored; AFP is an accepted tumor marker of HCC.
# EAE mice [2] = assay: EAE model (MOG35-55 peptide in CFA), FICZ treatment; assay type: in vivo
# Description: FIG. 2A is a line graph showing development of EAE on FICZ^− or control-treated mice (mean EAE score+s.e.m.)
# FIG. 2B is a pair of bar graphs showing cytokine secretion (pg/ml) triggered by MOG35-55 in splenocytes taken from FICZ or control-treated mice; left, IFNgamma, right, IL-17.
# FIGS. 2C-2E are each pairs of FACS plots showing the frequency of IFNγ, (2C), IL-17 (2D) or Foxp3 (2E) in splenocytes from FICZ or control-treated mice.
# The effects of FICZ were evaluated in vivo using the EAE model described in PCT International Patent Application NO. PCT/US2008/083016, and U.S. Provisional Patent Application Ser. No. 60/989,309, filed on Nov. 20, 2007.
# Mice were treated with PBS (control) or […], immunized with MOG35-55 peptide in CFA and monitored for EAE development.
# AHR = biological target: T1, AHR (Homo sapiens, UniProt P35869); assay: AHR reporter luciferase construct in HEK 293 cells (dual luciferase assay); assay type: cell-based; settings: different concentrations, normalised to Tk-Renilla, FIG. 8
# T1 construct: endogenous in cells
# T1 sequence (P35869 11-848): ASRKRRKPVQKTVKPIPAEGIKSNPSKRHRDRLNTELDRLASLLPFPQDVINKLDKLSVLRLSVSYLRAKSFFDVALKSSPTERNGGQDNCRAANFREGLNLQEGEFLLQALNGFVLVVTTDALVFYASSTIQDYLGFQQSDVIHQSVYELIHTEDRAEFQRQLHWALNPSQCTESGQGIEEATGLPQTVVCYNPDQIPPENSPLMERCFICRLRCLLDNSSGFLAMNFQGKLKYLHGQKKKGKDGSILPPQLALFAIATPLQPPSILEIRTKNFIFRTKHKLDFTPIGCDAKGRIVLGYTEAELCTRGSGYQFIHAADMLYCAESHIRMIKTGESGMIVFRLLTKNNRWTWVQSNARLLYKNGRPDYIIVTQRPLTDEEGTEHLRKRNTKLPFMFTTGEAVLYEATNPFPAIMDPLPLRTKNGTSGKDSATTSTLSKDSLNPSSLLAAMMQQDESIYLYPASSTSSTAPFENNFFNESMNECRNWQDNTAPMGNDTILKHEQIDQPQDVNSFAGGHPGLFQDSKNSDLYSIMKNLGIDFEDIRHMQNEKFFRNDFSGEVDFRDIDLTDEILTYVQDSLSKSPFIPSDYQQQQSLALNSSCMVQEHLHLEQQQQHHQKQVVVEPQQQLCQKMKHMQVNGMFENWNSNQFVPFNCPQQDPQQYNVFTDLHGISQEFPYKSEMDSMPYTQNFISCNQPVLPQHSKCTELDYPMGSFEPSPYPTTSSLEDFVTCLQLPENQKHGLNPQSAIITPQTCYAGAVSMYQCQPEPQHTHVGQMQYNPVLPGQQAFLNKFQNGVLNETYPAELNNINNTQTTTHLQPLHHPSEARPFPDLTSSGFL
# Description: FIG. 8 is a bar graph showing fluorescence in 293 cells transfected with an AHR reporter luciferase construct and a TK-Renilla Luciferase construct for normalization purposes. The cells were incubated with different concentrations of the AHR ligand TCDD and activation of the AHR reporter was followed by monitoring fluorescence from the luciferase.
# A construct coding for Foxp3 fused to Renilla luciferase (Ren) was created to provide a simple assay to identify compounds that increase expression of AHR (and thus increase luciferase expression and fluorescence as compared to a control) or that decrease expression of AHR (and thus decrease luciferase expression and fluorescence as compared to a control). HEK 293 cells were transfected as described (Bettelli et al., Proc Natl Acad Sci USA 102, 5138-5143 (2005)) with the AHR reporter luciferase construct and a TK-Renilla Luciferase construct for normalization purposes.
# The cells were incubated with different concentrations of the AHR ligand
# TCDD and activation of the AHR reporter was assayed using the dual luciferase assay kit ([…].). Tk-Renilla was used for standardization.
# zebrafish embryos = assay: zFoxp3 and IL-17 expression in developing zebrafish embryos; assay type: in vivo, zebrafish (Danio rerio); settings: treatment of developing zebrafish embryos
# Description: FIG. 4D is a bar graph showing the effect of a specific morpholino antisense oligonucleotide against Foxp3 on IL-17 expression in zebrafish.
# Zebrafish eggs were collected within 1 hr of spawning, and purified plasmids or morpholino antisense oligonucleotides were microinjected with a fine glass needle connected to an automatic injector. A morpholino oligonucleotide designed to block the translation of zFoxp3 (5′-[…]-3′) and a 5 bases mismatch control oligonucleotide (5′-GTcTTCgAGTAcCATTAAcAAGgAT-3′) were designed and synthesized by Gene Tools (Philomath, Oreg.). Each morpholino nucleotide was injected into the yolk of embryos at one to four cell stages.
smiles,measurement,setting,value
"O=c1cc(-c2ccccc2)oc2ccc3ccccc3c12 [bNF, beta-naphthoflavone]",T cell differentiation into TH17 cells (IL-17 production by real time PCR),T cells,same effect
"O=Cc1c2c(cc3c1=Nc1ccccc1-3)=Nc1ccccc1-2 [FICZ, 6-formylindolo[3,2-b]carbazole]",expression levels of the TH17 transcription factor RORγt,"naive T cells; FICZ alone, four days, FIG. 1E",did not significantly upregulate
same,"TH17 differentiation in vitro (IL-17+ T cells, IL-17, IL-21, IL-22 levels)","naive T cells; with TGFβ1, IL-6 and IL-23, four days, FIGS. 1F-1H","synergized with TGFβ1, IL-6 and IL-23 to drive TH17 differentiation"
same,differentiation of Treg triggered by TGFβ1,CD4+Foxp3:GFP- T cells,interfered with the differentiation of Treg
same,EAE development,EAE mice [1],worsened the disease
same,tumor growth (tumor volume),"Hep3b cells; IP twice a week, caliper measurement",suppressed tumor growth
same,tumor growth as measured by serum AFP levels,"Hep3b cells; seven and 14 days after treatment initiation, FIGS. 3A, 3B",significantly suppresses tumor growth
same,Mean day of onset (Mean ± SD),EAE mice [2]; EAE mice,13.3 ± 1.5
same,Mean maximum score (mean ± SD),EAE mice [2]; EAE mice,2.7 ± 1.8
same,EAE development,"EAE mice [2]; mice, single dose of 1 μg/mouse, FIG. 2A",significant worsening of EAE; also recorded: worsens EAE
same,frequency of CD4+Foxp3+ Treg,"EAE mice [2]; splenocytes from treated EAE mice, FIG. 2E",decrease in the frequency
same,frequencies of IL-17+ CD4+ and CD4+IFNγ+ T cells,"EAE mice [2]; splenocytes from treated EAE mice, FIGS. 2C, 2D",increased frequencies
same,secretion of IL-17 and IFNγ,"EAE mice [2]; splenocytes from treated mice, in vitro stimulation with MOG35-55, FIG. 2B",increased secretion
"Clc1cc2c(cc1Cl)Oc1cc(Cl)c(Cl)cc1O2 [TCDD, 2,3,7,8-tetrachlorodibenzo-p-dioxin]",expression of the AHR reporter,AHR,dose-dependent increases
same,EAE development,EAE mice [1],complete suppression of EAE
same,IL-17 expression,zebrafish embryos,down regulation
same,zFoxp3 expression,zebrafish embryos,dose-dependent increase
Oc1ccc(C=Cc2cc(O)cc(O)c2)cc1 [resveratrol],effect on FICZ synergism in TH17 differentiation,"naive T cells; AHR antagonist added, FIG. 1I",blocked

# From US20110262457A1, “MODULATION OF THE IMMUNE RESPONSE” (priority 2008, published 2011)
